Results reported in patent US9873724B2, “Pro-angiogenic peptides and peptide conjugates” (Yissum Research Development Company of the Hebrew …, priority 2013, dated 2018).
Values joined by “and” are separate entries in the source; they are usually repeats but may differ in a detail not shown here. Equal entries are not always repeated. Square brackets hold non-standard residues; d marks the D form. Ends that are not written are not given here. * marks the point of attachment. fluorescein = fluorescein moiety coupled to a lysine residue (K-Flu); Tyr(3,5-I2) = N[C@@H](Cc1cc(I)c(O)c(I)c1)C(=O)O; Phe(4-Br) = N[C@@H](Cc1ccc(Br)cc1)C(=O)O; hArg = N=C(N)NCCCC[C@H](N)C(=O)O; Myristoyl = CCCCCCCCCCCCCC(=O)*; Lauroyl = CCCCCCCCCCCC(=O)*; Decanoyl = CCCCCCCCCC(=O)*; Nle = CCCC[C@H](N)C(=O)O; Octanoyl = CCCCCCCC(=O)*; Hexanoyl = CCCCCC(=O)*

Tests used:
[1] = system: mouse aortic rings; assay: Aortic ring assay ex-vivo (capillary sprouting from mouse aortic rings in collagen; repeated with VEGF); assay type: cell-based; parameters: Capillary length 10 μM (10 μM) / Capillary length 20 μM / Capillary length 10 μM: unit not given here; conditions: for Capillary length 10 μM (10 μM) / Capillary length 10 μM: peptide 10 μM; for Capillary length 10 μM (10 μM) / Capillary length 20 μM / Capillary length 10 μM: rings fixed after two weeks; for Capillary length 20 μM: peptide 20 μM; for effect of peptide together with VEGF (in words): 10 μM peptide with VEGF; for Average capillary length / Fold vs vehicle: 10 μM peptide, alone or together with VEGF; for capillary / vessel formation (in words): aortic ring assay, FIGS. 1A-1C and 2A-2C; for Fold vs vehicle: capillary length
Protocol: Thoracic aortas were dissected from 7- to 8-week-old male SABRA mice. The aortas were immediately transferred to Petri dishes containing BIO-MPM-1. The adventitia and small vessels around the aorta were carefully removed under a dissecting microscope, and transverse cuts of 0.75 mm were made. The resulting aortic rings were extensively rinsed and incubated overnight in BIO-MPM-1 containing penicillin-streptomycin. Subsequently, the rings were embedded in 50 μl collagen mix (7 parts collagen, 1 part 10× Eagle minimal essential medium, MEM, and 2 parts 0.15 M sodium bicarbonate) in 96-well plates (Nunc, Rochester, N.Y.). Solidification of the collagen solution was achieved by raising the pH to neutral and the temperature to 37° C. 150 μl BIO-MPM-1 containing penicillin-streptomycin and the tested factors or peptides) was added to the embedded rings, and the plates were incubated at 37° C. in a humidified 10% CO2 atmosphere. Medium containing factors and/or peptides was refreshed at days 4 and 8. After two weeks, the rings were fixed with 4% formaldehyde for 24 hours, followed by staining with crystal violet (0.02%) dissolved in ethanol and extensive washing to remove excessive stain. The effect of factors and peptides was examined in 4 wells (4 rings of mouse aortic rings) per assay. Micrographs of representative rings were taken using a digital camera (Nikon, Tokyo, Japan). Morphometric analysis of sprouting was performed manually using Image-Pro 4.5 software (Media Cybernetics, Silver Spring, Md.) according to Nissanov et al. (Lab Invest. 1995; 73:734-739). Nonstained rings were subjected to paraffin sections and hematoxylin and eosin (H&E) staining.
FIGS. 1A-1C represents aortic ring capillary length and FIGS. 2A-2C aortic ring capillary width. In the table: K-Flu is a Lysine residue coupled with a fluorescein moiety, 4BrPhe is 4-bromo-Phenylalanine, Dod is Dodecanoyl, Dec designates Decanoyl, Oct is Octanoyl, and Hex is Hexanoyl.
The aortic ring assay was repeated in the presence of 10 μM concentration of peptides AB-033 (SEQ ID NO: 13) and AB-034 (SEQ ID NO: 14) together with the pro-angiogenetic protein VEGF.

[2] = system: Mice/Balb/c, hind limb ischemia model; assay: Mouse hind limb ischemia/angiogenesis model; assay type: in vivo; conditions: 20 mg/kg IP twice weekly
Text: The object of this study was to determine whether administration of the test items, peptides AB-017 (SEQ ID NO: 12) and 725-106 (positive control, SEQ ID NO: 2) can enhance angiogenesis, subsequently inducing clinical and motor function improvement in a hind limb ischemia model. The principle of the test is based on changes in perfusion rate, clinical signs and histological parameters (necrosis) following administration of the test compounds.
Each tested group included 4-7 mice per group. Intraperitoneal (i.p) injection is the preferred route of administration of the test items in this model and DMSO/PEG is used as vehicle to prepare the test item solution.
Tested peptides were dissolved in 100% DMSO. Thereafter Polyethylene glycol (PEG) 400 is added to the solution. Sterile water was used to dilute to a final concentration of 0.5% DMSO/10% PEG 400/H2O to result 2 mg/ml. The solution is prepared and divided into marked aliquots and stored at −70° C.
Species/Strain: Mice/Balb/c male˜8 weeks
Animals were housed under standard laboratory conditions, air conditioned and filtered (HEPA F6/6) with adequate fresh air supply (31 air changes/hour). Animals were kept in a climate controlled environment. Temperatures range is between 20-24° C. and RH is between 30-70% with 12 hours light and 12 hours dark cycle. Animals were housed in polyethylene cages (7/cage) measuring 35×30×15 cm, with stainless steel top grill facilitating pelleted food and drinking water in plastic bottle; bedding: steam sterilized clean paddy husk. Bedding material is changed along with the cage at least twice a week. Diet: Animals are fed ad libitum a commercial rodent diet (Teklad Certified Global 18% Protein Diet cat #: 106S8216). Animals have free access to drinking water obtained from the municipality supply. Surgical Procedure: Anesthesia: Isoflurane 1.5-3% in a mixture of O2/N2O, under spontaneous respiration. All four limbs of the animal were taped down in order to facilitate the animal for surgery. Both hind legs of the animals are shaved and disinfected. On the operated leg, the right leg in all animals, an incision was made from the inguinal area to the proximity of the knee. The femoral vein/artery/nerve were exposed. The artery is dissected free from the vein, nerve and surrounding fascia. Distal to its bifurcation with the profound femoral artery, using 6-0 silk suture the artery is ligated twice, and thereafter transected between these two points (see prox-A-group model appendix I). The surgical wound is closed with 6-0 silk and the mouse is returned to its cage. The left leg is untreated control in all animals. Exclusion criteria: Only mice, whose mean flux measurement post surgery is […] and ≦50% of the pre surgical measurement, are incorporated into the study. Mice whose mean flux measurement post surgery out of this range were excluded from the study.
[formula] Drug administration: All animals were dosed by IP administration at a dose volume of 10 ml/kg.
Tests and Evaluation: Body weight: Body weights were measured prior to surgery, prior to each dosing, and prior to necropsy. Blood flow measurement: Using a Laser Doppler apparatus (Perimed PeriScan PIM II System, Technical manual available at test facility) Blood flow was measured (operated leg & control leg) while the legs are in their natural resting position at the following time points: Before surgery (after shaving) & Post surgery (Day 0); Day 1; Day 8; Day 15; Day 22; and Day 29. Each time point for each mouse consists of three measurements. Blood flow was measured, additionally, in first 10 animals at Pre before shaving. […]

725-106: Previously disclosed EDG3 peptide, positive control; Table 2: Myr-Gly, Nle, Arg, Pro, Tyr, Asn, Ala, NH2 (Myristoyl-G[Nle]RPYNA-NH2; SMILES CCCCCCCCCCCCCC(=O)NCC(=O)N[C@@H](CCCC)C(=O)N[C@@H](CCCNC(=N)N)C(=O)N1CCC[C@H]1C(=O)N[C@@H](Cc1ccc(O)cc1)C(=O)N[C@@H](CC(N)=O)C(=O)N[C@@H](C)C(N)=O) [Peptide 725-106, reference compound]
Capillary length 10 μM (10 μM) [1]: 7,000 | Capillary length 20 μM [1]: 4,600 | Functional evaluation at day 15 (individual mouse) ([2]; function score 0 (flexing the toes) to 3 (dragging of foot), one value per mouse): 3.0 | Hind limb ischemia evaluation at day 15, Average ([2]; group average of ischemic score): 2.4 | Hind limb ischemia evaluation at day 15 (individual mouse) ([2]; ischemic score 0 (absence of necrosis) to 4 (total hind-limb loss), one value per mouse, listed as 106): 2.0 (2×) and 3.0 and 2.5

AB-011: Table 2: Myr-Gly, Nle, Arg, Pro, Tyr, Asn, Ala, K-Flu (lysine coupled with fluorescein), NH2 (Myristoyl-G[Nle]RPYNAK(fluorescein)-NH2)
Capillary length 10 μM (10 μM) [1]: 2500 | Capillary length 20 μM [1]: 5000

AB-013: Table 2: Myr-Gly, Nle, Arg, Pro, Tyr, Asn, DAla, NH2 (Myristoyl-G[Nle]RPYN[dA]-NH2; SMILES CCCCCCCCCCCCCC(=O)NCC(=O)N[C@@H](CCCC)C(=O)N[C@@H](CCCNC(=N)N)C(=O)N1CCC[C@H]1C(=O)N[C@@H](Cc1ccc(O)cc1)C(=O)N[C@@H](CC(N)=O)C(=O)N[C@H](C)C(N)=O)
Capillary length 10 μM (10 μM) [1]: 8700 | Capillary length 20 μM [1]: 900

AB-015: Table 2: Acetyl-Gly-, Arg, Pro, Tyr, NH2 (Ac-GRPY-NH2)
Capillary length 10 μM (10 μM) [1]: 1,000 | Capillary length 20 μM [1]: 1,700

AB-018: Table 2: Myr-Gly, Nle, Arg, Pro, Tyr, Asn, NH2 (Myristoyl-G[Nle]RPYN-NH2; SMILES CCCCCCCCCCCCCC(=O)NCC(=O)N[C@@H](CCCC)C(=O)N[C@@H](CCCNC(=N)N)C(=O)N1CCC[C@H]1C(=O)N[C@@H](Cc1ccc(O)cc1)C(=O)N[C@@H](CC(N)=O)C(N)=O)
Capillary length 10 μM (10 μM) [1]: 12,600 | Capillary length 20 μM [1]: 10,200

AB-020: Table 2: Dod-Gly (Dodecanoyl), Nle, Arg, Pro, Tyr (Lauroyl-G[Nle]RPY)
Capillary length 10 μM [1]: 5,600 | Capillary length 10 μM (10 μM) [1]: 1,900 | Capillary length 20 μM [1]: 2,700

AB-021: Table 2: Dec-Gly (Decanoyl), Nle, Arg, Pro, Tyr (Decanoyl-G[Nle]RPY)
Capillary length 10 μM [1]: 3,940 | Capillary length 10 μM (10 μM) [1]: 590 | Capillary length 20 μM [1]: 3,200

AB-022: Table 2: Oct-Gly (Octanoyl), Nle, Arg, Pro, Tyr (Octanoyl-G[Nle]RPY)
Capillary length 10 μM [1]: 2,170 | Capillary length 10 μM (10 μM) [1]: 380 | Capillary length 20 μM [1]: 1,700

AB-023: Table 2: Hex-Gly (Hexanoyl), Nle, Arg, Pro, Tyr (Hexanoyl-G[Nle]RPY)
Capillary length 10 μM [1]: 1,700 | Capillary length 10 μM (10 μM) [1]: 430 | Capillary length 20 μM [1]: 320

AB-031: Table 2: Myr-Gly, Nle, Arg, Pro, 4BrPhe (Myristoyl-G[Nle]RP[Phe(4-Br)])
Capillary length 10 μM [1]: 1,840

Myr-Gly-Arg-Pro-Tyr-NH2 (Myristoyl-GRPY-NH2; SMILES CCCCCCCCCCCCCC(=O)NCC(=O)N[C@@H](CCCNC(=N)N)C(=O)N1CCC[C@H]1C(=O)N[C@@H](Cc1ccc(O)cc1)C(N)=O) [AB-016]
Capillary length 10 μM (10 μM) [1]: 8,700 | Capillary length 20 μM [1]: 14,500

Myr-Gly-Nle-Arg-Pro-35dITyr-NH2 (Myristoyl-G[Nle]RP[Tyr(3,5-I2)]-NH2; SMILES CCCCCCCCCCCCCC(=O)NCC(=O)N[C@@H](CCCC)C(=O)N[C@@H](CCCNC(=N)N)C(=O)N1CCC[C@H]1C(=O)N[C@@H](Cc1cc(I)c(O)c(I)c1)C(N)=O) [AB-033]
effect of peptide together with VEGF (in words) [1]: synergistic effect | Average capillary length [1]: 4941 | capillary / vessel formation (in words) [1]: induce massive capillary formation | Fold vs vehicle [1]: 3.6 | Capillary length 10 μM (10 μM) [1]: 3,570 | Capillary length 20 μM [1]: 3,800

Myr-Gly-Nle-hArg-Pro-Tyr-NH2 (Myristoyl-G[Nle][hArg]PY-NH2; SMILES CCCCCCCCCCCCCC(=O)NCC(=O)N[C@@H](CCCC)C(=O)N[C@@H](CCCCNC(=N)N)C(=O)N1CCC[C@H]1C(=O)N[C@@H](Cc1ccc(O)cc1)C(N)=O) [AB-034]
effect of peptide together with VEGF (in words) [1]: synergistic effect | Average capillary length [1]: 3062 | capillary / vessel formation (in words) [1]: induce massive capillary formation | Fold vs vehicle [1]: 2.2 | Capillary length 10 μM [1]: 9,700 | Capillary length 10 μM (10 μM) [1]: 9,570 | Capillary length 20 μM [1]: 10,780

VEGF
Average capillary length [1]: 3221 | Fold vs vehicle [1]: 2.4
